The record followed here is ChEMBL document CHEMBL1133140, “Computer-aided design, synthesis and biological assay of p-methylsulfonamido phenylethylamine analogues” (2000).

Test [1] in a line: Negative log of concentration (-logC)for delaying functional refractory period 10 ms in animal atrium. On the set-up: species or system Cardiac atrium.
A short description of test [2]: Tested for its effective concentration for delaying functional refractory period 10 ms in animal atrium. On the set-up: species or system Cardiac atrium.
Test [3] in a line: Tested for its maximal percent change of force of constriction in uM. The class given is functional.
Test [4] is described as follows: Tested for its maximal percent change of delaying functional refractory period in uM.
The nature of test [5]: Tested for its maximal percent change of heart rate in uM. The format is functional.
Test [6] is described as follows: The compound was tested for its maximal percent change of force of constriction in uM; no effect. The class given is functional.
Test [7] in a line: The compound was tested for its maximal percent change of delaying functional refractory period in uM; no effect.

Activity calls are given as the source filed them. The rule behind the calls is not given here.

`CS(=O)(=O)Nc1ccc(CCNCCOc2ccc(NS(C)(=O)=O)cc2)cc1` [N-DESMETHYLDOFETILIDE] registered an EA in test [1] of 7.63. The same compound had an Effective concentration in test [2] of 0.023 µM.
On to `CS(=O)(=O)Nc1ccc(CCN(CCOc2ccccc2)C(=O)c2ccccc2)cc1`, for which the Max delta FC in test [3] is 33.3%. The same compound yielded a Max delta FRP in test [4] of 5.33%. For the same compound, the “Max delta HR” value in test [5] is listed as -20%.
In test [1], `COc1ccc(CN(C)CCc2ccc(N(S(C)(=O)=O)S(C)(=O)=O)cc2)cc1` displayed an EA of 5.93. In test [2], this compound yielded an Effective concentration of 1.17 µM.
In the same order, the values of `CS(=O)(=O)Nc1ccc(CCN(CCOc2ccc(NS(C)(=O)=O)cc2)Cc2ccc(Cl)cc2)cc1` are 7.44 and 0.037 µM.
Regarding `C=CCN(CCOc1ccccc1)CCc1ccc(NS(C)(=O)=O)cc1`, the Max delta FC in test [3] is 16.7%. In addition, the Max delta FRP in test [4] worked out at 9.77%. In test [5], the “Max delta HR” value was -15.18%.
On to `Cc1ccc(CN(C)CCc2ccc(N(S(C)(=O)=O)S(C)(=O)=O)cc2)cc1`, for which the EA in test [1] was 6.02. In addition, the Effective concentration in test [2] is 0.953 µM.
Compound `CN(CCc1ccc(NS(C)(=O)=O)cc1)Cc1ccccc1` displayed an EA in test [1] of 6.34. For the same compound, in test [2], the Effective concentration came to 0.372 µM.
In the same order, the values of `CS(=O)(=O)Nc1ccc(CCN(Cc2ccccc2)Cc2ccccc2)cc1` are 6.57 and 0.27 µM.
Turning to `Cc1ccc(CN(CCc2ccc(N(S(C)(=O)=O)S(C)(=O)=O)cc2)Cc2ccccc2)cc1`, the EA in test [1] was 6.21. In test [2], this compound registered an Effective concentration of 0.62 µM.
In turn, `CN(CCc1ccc(NS(C)(=O)=O)cc1)Cc1ccc(Cl)cc1` yielded an EA in test [1] of 5.65. For the same compound, the Effective concentration in test [2] was determined as 2.239 µM.
The like results for `CN(CCc1ccc(NS(C)(=O)=O)cc1)C1CCCCC1` were, in that order, 5.32 and 4.789 µM.
`CC(=O)N(CCOc1ccccc1)CCc1ccc(N(S(C)(=O)=O)S(C)(=O)=O)cc1`: the “Max delta FC” value in test [6] is “inactive”. For the same compound, in test [7], the “Max delta FRP” value was “inactive”. For the same compound, in test [5], the “Max delta HR” value is on record as -20.51%.
The compound `CC(=O)N(CCOc1ccc(NS(C)(=O)=O)cc1)CCc1ccc(NS(C)(=O)=O)cc1` had an EA in test [1] of 7.67. This compound also yielded an Effective concentration in test [2] of 0.021 µM.
Compound `CS(=O)(=O)Nc1ccc(CCN(CCOc2ccc(NS(C)(=O)=O)cc2)Cc2ccccc2)cc1` had an EA in test [1] of 7.8. Further, in test [2], the Effective concentration turned out to be 0.016 µM.
Consider `CS(=O)(=O)N(c1ccc(CCN(CCOc2ccccc2)Cc2ccccc2)cc1)S(C)(=O)=O`, for which the Max delta FC in test [3] came to 25%. Further, the “Max delta FRP” value in test [7] is “inactive”. Besides, in test [5], the “Max delta HR” value is -17.86%.
The like results for `C=CCN(CCOc1ccccc1)CCc1ccc(N(S(C)(=O)=O)S(C)(=O)=O)cc1` were, in that order, 16.7%, “inactive” and -8.33%.
As for `CN(CCOc1ccc(NS(C)(=O)=O)cc1)CCc1ccc(NS(C)(=O)=O)cc1` [DOFETILIDE], the EA in test [1] turned out to be 7.92. This compound also showed an Effective concentration in test [2] of 0.012 µM. The Max delta FC in test [3] turned out to be 17.1%. The compound further registered a Max delta FRP in test [4] of 24%. The “Max delta HR” value in test [5] was -30.03%.
In the case of `COc1ccccc1CN(CCc1ccc(NS(C)(=O)=O)cc1)Cc1ccccc1`, the EA in test [1] is given as 6.85. Also, the Effective concentration in test [2] is 0.141 µM.
`CN(CCc1ccc(NS(C)(=O)=O)cc1)Cc1ccc2c(c1)OCO2` gave an EA in test [1] of 6.15. The compound further had an Effective concentration in test [2] of 0.89 µM.
The like results for `CS(=O)(=O)Nc1ccc(CCN(Cc2ccccc2)Cc2ccc(Cl)cc2)cc1` were, in that order, 5.98 and 1.05 µM.
With `CC(=O)N(CCOc1ccccc1)CCc1ccc(NS(C)(=O)=O)cc1`, the Max delta FC in test [3] is -37.9%. In addition, the Max delta FRP in test [4] was determined as 58.4%. In addition, in test [5], the “Max delta HR” value is -46.17%.
In turn, `COc1ccc(CN(CCc2ccc(N(S(C)(=O)=O)S(C)(=O)=O)cc2)Cc2ccccc2)cc1` returned an EA in test [1] of 6.1. Further, in test [2], the Effective concentration came out at 0.79 µM.
In the same order, the values of `CS(=O)(=O)N(c1ccc(CCN(Cc2ccccc2)Cc2ccc3c(c2)OCO3)cc1)S(C)(=O)=O` are 6.41 and 0.38 µM.
With `CN(CCOc1ccccc1)CCc1ccc(N(S(C)(=O)=O)S(C)(=O)=O)cc1`, the “Max delta FC” value in test [6] was “inactive”. In addition, the Max delta FRP in test [4] came out at 12%. The “Max delta HR” value in test [5] was -20.69%.
`CS(=O)(=O)Nc1ccc(CCN(CCOc2ccccc2)Cc2ccccc2)cc1`: the Max delta FC in test [3] worked out at 25%. Also, the “Max delta FRP” value in test [7] was “inactive”. Moreover, the “Max delta HR” value in test [5] was -31.8%.
In the case of `CN(CCOc1ccccc1)CCc1ccc(NS(C)(=O)=O)cc1`, the Max delta FC in test [3] was determined as 20.2%. The Max delta FRP in test [4] was determined as 20.2%. Besides, the “Max delta HR” value in test [5] is -28.51%.
